Experimental data from ChEMBL document CHEMBL1145498, “A systematic interaction map of validated kinase inhibitors with Ser/Thr kinases” (Proc Natl Acad Sci U S A, 2007).

molecular target: Serine/threonine-protein kinase 26 (Homo sapiens) (UniProt Q9P289)
Sequence (Q9P289 2-416 limits assumed): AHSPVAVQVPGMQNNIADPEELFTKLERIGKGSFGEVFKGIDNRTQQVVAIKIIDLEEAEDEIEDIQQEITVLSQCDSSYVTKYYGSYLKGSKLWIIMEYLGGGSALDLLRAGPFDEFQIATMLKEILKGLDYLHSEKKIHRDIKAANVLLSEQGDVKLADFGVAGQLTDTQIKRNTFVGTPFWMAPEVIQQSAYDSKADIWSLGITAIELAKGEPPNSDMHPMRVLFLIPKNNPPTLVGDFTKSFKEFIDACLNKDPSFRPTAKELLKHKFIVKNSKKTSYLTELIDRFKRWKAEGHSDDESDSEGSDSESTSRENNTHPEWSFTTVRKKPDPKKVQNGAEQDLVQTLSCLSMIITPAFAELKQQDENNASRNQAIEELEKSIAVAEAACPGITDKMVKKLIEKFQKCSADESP

ΔTm [°C] | Structure (SMILES)
0.3 | CC(C)n1cnc2c(NCc3ccccc3O)nc(NCCCO)nc21
1.6 | O=C1Nc2ccc(I)cc2/C1=C\c1cc(Br)c(O)c(Br)c1
1.3 | O=C1Cc2c([nH]c3ccc([N+](=O)[O-])cc23)-c2ccccc2N1

molecular target: Serine/threonine-protein kinase 26 (Homo sapiens) (UniProt Q9P289); remark: another data set of the same source

ΔTm [°C] | Structure (SMILES)
0.4 | CC(C)n1cnc2c(NCc3ccccc3O)nc(NCCCO)nc21
-0.4 | O=C1Nc2ccc(I)cc2/C1=C\c1cc(Br)c(O)c(Br)c1
2.5 | O=C1Cc2c([nH]c3ccc([N+](=O)[O-])cc23)-c2ccccc2N1

molecular target: Serine/threonine-protein kinase OSR1 (Homo sapiens) (UniProt O95747)
Sequence (O95747 2-527 limits assumed): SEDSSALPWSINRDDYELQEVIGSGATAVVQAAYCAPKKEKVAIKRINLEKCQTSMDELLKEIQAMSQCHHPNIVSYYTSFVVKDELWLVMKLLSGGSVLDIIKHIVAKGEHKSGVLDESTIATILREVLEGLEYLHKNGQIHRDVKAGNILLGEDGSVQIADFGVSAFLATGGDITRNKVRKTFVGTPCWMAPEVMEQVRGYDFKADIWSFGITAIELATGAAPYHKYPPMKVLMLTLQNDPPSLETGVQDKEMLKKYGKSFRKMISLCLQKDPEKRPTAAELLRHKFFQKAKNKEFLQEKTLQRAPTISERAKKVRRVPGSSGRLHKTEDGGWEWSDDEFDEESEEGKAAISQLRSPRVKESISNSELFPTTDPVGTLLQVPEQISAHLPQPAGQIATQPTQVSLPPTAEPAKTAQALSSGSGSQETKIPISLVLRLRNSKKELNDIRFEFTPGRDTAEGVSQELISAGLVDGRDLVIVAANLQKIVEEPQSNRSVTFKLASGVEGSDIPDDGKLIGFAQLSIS

ΔTm [°C] | Structure (SMILES)
0.3 | CC(C)n1cnc2c(NCc3ccccc3O)nc(NCCCO)nc21
-0.4 | O=C1Nc2ccc(I)cc2/C1=C\c1cc(Br)c(O)c(Br)c1
1.2 | O=C1Cc2c([nH]c3ccc([N+](=O)[O-])cc23)-c2ccccc2N1

molecular target: Mitogen-activated protein kinase 11 (Homo sapiens, UniProt Q15759)
Sequence (Q15759 whole entry): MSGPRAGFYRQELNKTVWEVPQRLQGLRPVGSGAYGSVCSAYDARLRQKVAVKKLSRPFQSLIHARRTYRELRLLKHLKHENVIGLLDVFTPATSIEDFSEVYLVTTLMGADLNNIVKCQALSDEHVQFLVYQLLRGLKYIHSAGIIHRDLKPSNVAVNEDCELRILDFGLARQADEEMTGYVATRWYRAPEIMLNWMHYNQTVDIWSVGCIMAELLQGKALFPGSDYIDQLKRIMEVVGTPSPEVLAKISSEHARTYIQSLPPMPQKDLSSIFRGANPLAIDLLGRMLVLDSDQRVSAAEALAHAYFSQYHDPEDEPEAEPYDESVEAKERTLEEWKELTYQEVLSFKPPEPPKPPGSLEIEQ

ΔTm [°C] | Structure (SMILES)
0.1 | CC(C)n1cnc2c(NCc3ccccc3O)nc(NCCCO)nc21
-0.2 | O=C1Nc2ccc(I)cc2/C1=C\c1cc(Br)c(O)c(Br)c1
-0.1 | O=C1Cc2c([nH]c3ccc([N+](=O)[O-])cc23)-c2ccccc2N1

molecular target: Serine/threonine-protein kinase PAK 5 (Homo sapiens) (UniProt Q9P286)

ΔTm [°C] | Structure (SMILES)
0.2 | CC(C)n1cnc2c(NCc3ccccc3O)nc(NCCCO)nc21
1 | O=C1Nc2ccc(I)cc2/C1=C\c1cc(Br)c(O)c(Br)c1
3.8 | O=C1Cc2c([nH]c3ccc([N+](=O)[O-])cc23)-c2ccccc2N1

molecular target: Dual specificity protein kinase CLK2 (Homo sapiens) (UniProt P49760)
Sequence (P49760 whole entry, looked up): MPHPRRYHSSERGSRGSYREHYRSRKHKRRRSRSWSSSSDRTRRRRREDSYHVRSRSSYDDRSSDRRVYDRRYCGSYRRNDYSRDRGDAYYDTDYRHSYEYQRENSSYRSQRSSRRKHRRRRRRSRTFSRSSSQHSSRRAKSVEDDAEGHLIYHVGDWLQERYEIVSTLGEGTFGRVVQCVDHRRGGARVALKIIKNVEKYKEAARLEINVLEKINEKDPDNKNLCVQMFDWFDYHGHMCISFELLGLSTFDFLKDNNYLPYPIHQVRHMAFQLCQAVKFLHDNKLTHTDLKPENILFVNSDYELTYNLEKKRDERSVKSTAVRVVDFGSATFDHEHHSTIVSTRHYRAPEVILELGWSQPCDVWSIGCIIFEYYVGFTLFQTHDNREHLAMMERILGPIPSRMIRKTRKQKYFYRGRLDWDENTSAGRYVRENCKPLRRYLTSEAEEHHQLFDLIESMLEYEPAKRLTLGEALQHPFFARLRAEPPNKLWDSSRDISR

ΔTm [°C] | Structure (SMILES)
1 | CC(C)n1cnc2c(NCc3ccccc3O)nc(NCCCO)nc21
1.2 | O=C1Nc2ccc(I)cc2/C1=C\c1cc(Br)c(O)c(Br)c1
0.7 | O=C1Cc2c([nH]c3ccc([N+](=O)[O-])cc23)-c2ccccc2N1

molecular target: T1, Myotonin-protein kinase (Homo sapiens) (UniProt Q09013)
T1 sequence (whole entry): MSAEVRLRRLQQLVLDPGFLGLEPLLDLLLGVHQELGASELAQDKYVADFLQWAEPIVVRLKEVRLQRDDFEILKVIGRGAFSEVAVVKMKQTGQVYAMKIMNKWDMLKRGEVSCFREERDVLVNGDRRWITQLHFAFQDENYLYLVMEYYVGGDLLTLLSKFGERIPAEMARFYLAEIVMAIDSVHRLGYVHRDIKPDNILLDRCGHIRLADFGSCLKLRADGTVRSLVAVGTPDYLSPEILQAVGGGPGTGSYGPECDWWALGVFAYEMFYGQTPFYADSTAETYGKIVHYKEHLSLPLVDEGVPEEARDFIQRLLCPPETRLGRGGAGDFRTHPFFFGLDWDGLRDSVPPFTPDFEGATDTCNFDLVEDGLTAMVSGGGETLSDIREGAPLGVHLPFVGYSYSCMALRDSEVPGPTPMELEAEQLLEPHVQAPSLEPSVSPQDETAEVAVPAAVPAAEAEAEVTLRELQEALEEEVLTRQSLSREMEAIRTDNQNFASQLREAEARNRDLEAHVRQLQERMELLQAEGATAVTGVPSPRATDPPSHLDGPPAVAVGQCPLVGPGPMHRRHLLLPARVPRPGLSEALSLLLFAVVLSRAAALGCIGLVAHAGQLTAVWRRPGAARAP

ΔTm [°C] | Structure (SMILES)
0 | CC(C)n1cnc2c(NCc3ccccc3O)nc(NCCCO)nc21
0.2 | O=C1Nc2ccc(I)cc2/C1=C\c1cc(Br)c(O)c(Br)c1
1.9 | O=C1Cc2c([nH]c3ccc([N+](=O)[O-])cc23)-c2ccccc2N1

molecular target: T2, Serine/threonine-protein kinase VRK1 (Homo sapiens) (UniProt Q99986)
T2 sequence (whole entry): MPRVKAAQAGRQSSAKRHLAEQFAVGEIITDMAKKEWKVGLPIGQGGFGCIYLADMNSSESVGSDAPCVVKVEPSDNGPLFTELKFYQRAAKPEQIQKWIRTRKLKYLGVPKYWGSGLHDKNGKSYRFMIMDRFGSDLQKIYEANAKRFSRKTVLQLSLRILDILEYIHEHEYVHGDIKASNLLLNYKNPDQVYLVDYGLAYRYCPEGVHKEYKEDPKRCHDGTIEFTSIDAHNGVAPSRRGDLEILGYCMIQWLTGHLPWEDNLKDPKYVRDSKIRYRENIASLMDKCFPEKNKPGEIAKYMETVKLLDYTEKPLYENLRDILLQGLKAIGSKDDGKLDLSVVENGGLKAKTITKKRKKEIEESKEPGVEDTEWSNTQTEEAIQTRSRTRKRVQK

ΔTm [°C] | Structure (SMILES)
0 | CC(C)n1cnc2c(NCc3ccccc3O)nc(NCCCO)nc21
1.7 | O=C1Nc2ccc(I)cc2/C1=C\c1cc(Br)c(O)c(Br)c1
0.2 | O=C1Cc2c([nH]c3ccc([N+](=O)[O-])cc23)-c2ccccc2N1

molecular target: Serine/threonine-protein kinase pim-3 (Homo sapiens) (UniProt Q86V86)

ΔTm [°C] | Structure (SMILES)
0.4 | CC(C)n1cnc2c(NCc3ccccc3O)nc(NCCCO)nc21
6 | O=C1Nc2ccc(I)cc2/C1=C\c1cc(Br)c(O)c(Br)c1
2.8 | O=C1Cc2c([nH]c3ccc([N+](=O)[O-])cc23)-c2ccccc2N1

molecular target: Calcium/calmodulin-dependent protein kinase type II subunit gamma (Homo sapiens) (UniProt Q13555)

ΔTm [°C] | Structure (SMILES)
0.1 | CC(C)n1cnc2c(NCc3ccccc3O)nc(NCCCO)nc21
-0.3 | O=C1Nc2ccc(I)cc2/C1=C\c1cc(Br)c(O)c(Br)c1
-0.1 | O=C1Cc2c([nH]c3ccc([N+](=O)[O-])cc23)-c2ccccc2N1

molecular target: Serine/threonine-protein kinase 25 (Homo sapiens) (UniProt O00506)
Sequence (O00506 whole entry, looked up): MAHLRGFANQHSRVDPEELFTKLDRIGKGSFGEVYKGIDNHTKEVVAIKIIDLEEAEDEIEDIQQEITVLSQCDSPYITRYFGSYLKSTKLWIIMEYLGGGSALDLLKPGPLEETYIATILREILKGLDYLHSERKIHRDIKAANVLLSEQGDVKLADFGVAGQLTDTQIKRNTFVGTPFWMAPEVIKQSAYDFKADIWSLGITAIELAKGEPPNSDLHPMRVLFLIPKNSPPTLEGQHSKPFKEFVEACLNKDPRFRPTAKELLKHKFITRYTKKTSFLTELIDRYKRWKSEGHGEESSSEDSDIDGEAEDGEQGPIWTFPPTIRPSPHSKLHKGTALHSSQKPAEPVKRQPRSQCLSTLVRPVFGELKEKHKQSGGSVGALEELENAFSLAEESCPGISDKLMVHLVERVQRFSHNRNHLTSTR

ΔTm [°C] | Structure (SMILES)
0.3 | CC(C)n1cnc2c(NCc3ccccc3O)nc(NCCCO)nc21
0.6 | O=C1Nc2ccc(I)cc2/C1=C\c1cc(Br)c(O)c(Br)c1
2.4 | O=C1Cc2c([nH]c3ccc([N+](=O)[O-])cc23)-c2ccccc2N1

molecular target: T3, Serine/threonine-protein kinase 17A (Homo sapiens) (UniProt Q9UEE5)
T3 sequence (whole entry): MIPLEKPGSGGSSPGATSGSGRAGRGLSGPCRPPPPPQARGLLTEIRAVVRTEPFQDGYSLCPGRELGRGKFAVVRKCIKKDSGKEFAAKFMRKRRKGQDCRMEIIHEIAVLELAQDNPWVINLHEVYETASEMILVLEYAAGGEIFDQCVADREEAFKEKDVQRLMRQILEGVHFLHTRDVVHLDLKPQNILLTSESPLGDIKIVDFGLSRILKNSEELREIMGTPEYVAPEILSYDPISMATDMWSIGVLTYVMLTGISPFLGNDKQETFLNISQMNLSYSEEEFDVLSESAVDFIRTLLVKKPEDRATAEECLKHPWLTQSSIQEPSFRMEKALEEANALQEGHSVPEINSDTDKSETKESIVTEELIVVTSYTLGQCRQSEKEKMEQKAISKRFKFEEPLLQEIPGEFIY

ΔTm [°C] | Structure (SMILES)
0 | CC(C)n1cnc2c(NCc3ccccc3O)nc(NCCCO)nc21
4.8 | O=C1Nc2ccc(I)cc2/C1=C\c1cc(Br)c(O)c(Br)c1
11.4 | O=C1Cc2c([nH]c3ccc([N+](=O)[O-])cc23)-c2ccccc2N1

molecular target: Serine/threonine-protein kinase pim-1 (Homo sapiens) (UniProt P11309)
Sequence (P11309 whole entry, looked up): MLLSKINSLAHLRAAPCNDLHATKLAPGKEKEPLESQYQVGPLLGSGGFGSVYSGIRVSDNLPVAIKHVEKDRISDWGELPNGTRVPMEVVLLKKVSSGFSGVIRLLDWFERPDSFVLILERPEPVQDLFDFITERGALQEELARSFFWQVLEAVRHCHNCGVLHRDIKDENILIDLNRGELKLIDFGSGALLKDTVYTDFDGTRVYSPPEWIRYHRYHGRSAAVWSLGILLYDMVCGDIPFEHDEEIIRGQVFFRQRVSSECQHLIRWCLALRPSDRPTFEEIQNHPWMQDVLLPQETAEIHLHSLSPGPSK

ΔTm [°C] | Structure (SMILES)
-1.3 | CC(C)n1cnc2c(NCc3ccccc3O)nc(NCCCO)nc21
2.5 | O=C1Nc2ccc(I)cc2/C1=C\c1cc(Br)c(O)c(Br)c1
3 | O=C1Cc2c([nH]c3ccc([N+](=O)[O-])cc23)-c2ccccc2N1

molecular target: Serine/threonine-protein kinase pim-2 (Homo sapiens, UniProt Q9P1W9)
Sequence (Q9P1W9 whole entry, looked up): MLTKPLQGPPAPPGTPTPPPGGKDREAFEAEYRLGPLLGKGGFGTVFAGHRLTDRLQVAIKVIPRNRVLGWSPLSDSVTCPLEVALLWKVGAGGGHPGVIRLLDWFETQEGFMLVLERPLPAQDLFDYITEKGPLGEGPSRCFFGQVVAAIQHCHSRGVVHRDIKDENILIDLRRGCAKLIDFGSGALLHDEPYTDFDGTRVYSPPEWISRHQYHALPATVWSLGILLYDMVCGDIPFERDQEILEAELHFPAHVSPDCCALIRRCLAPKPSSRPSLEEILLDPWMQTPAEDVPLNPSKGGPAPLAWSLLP

ΔTm [°C] | Structure (SMILES)
0.1 | CC(C)n1cnc2c(NCc3ccccc3O)nc(NCCCO)nc21
6.8 | O=C1Nc2ccc(I)cc2/C1=C\c1cc(Br)c(O)c(Br)c1
1.5 | O=C1Cc2c([nH]c3ccc([N+](=O)[O-])cc23)-c2ccccc2N1

molecular target: Ribosomal protein S6 kinase alpha-3 (Homo sapiens) (UniProt P51812)
Sequence (P51812 whole entry): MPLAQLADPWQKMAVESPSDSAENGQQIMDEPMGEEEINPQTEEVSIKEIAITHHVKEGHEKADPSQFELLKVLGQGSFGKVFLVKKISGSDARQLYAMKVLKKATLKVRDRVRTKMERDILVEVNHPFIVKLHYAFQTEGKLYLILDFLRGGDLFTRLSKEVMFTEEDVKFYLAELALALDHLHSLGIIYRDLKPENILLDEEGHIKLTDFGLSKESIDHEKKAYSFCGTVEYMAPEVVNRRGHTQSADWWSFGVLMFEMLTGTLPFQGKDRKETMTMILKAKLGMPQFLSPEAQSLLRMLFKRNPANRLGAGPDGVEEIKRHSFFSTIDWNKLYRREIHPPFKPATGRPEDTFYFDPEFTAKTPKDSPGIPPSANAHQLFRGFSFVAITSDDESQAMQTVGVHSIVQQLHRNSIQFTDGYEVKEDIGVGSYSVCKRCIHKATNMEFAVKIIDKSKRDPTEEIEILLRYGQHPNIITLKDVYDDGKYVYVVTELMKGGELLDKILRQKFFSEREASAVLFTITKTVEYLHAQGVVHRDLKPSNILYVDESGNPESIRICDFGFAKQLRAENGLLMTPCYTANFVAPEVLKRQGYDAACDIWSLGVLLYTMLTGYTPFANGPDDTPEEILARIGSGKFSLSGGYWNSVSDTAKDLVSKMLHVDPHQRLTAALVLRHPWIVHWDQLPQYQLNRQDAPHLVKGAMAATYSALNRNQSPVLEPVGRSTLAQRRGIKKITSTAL

ΔTm [°C] | Structure (SMILES)
0.7 | CC(C)n1cnc2c(NCc3ccccc3O)nc(NCCCO)nc21
5.1 | O=C1Nc2ccc(I)cc2/C1=C\c1cc(Br)c(O)c(Br)c1
0.2 | O=C1Cc2c([nH]c3ccc([N+](=O)[O-])cc23)-c2ccccc2N1

molecular target: Calcium/calmodulin-dependent protein kinase type II subunit delta (Homo sapiens) (UniProt Q13557)
Sequence (Q13557 whole entry): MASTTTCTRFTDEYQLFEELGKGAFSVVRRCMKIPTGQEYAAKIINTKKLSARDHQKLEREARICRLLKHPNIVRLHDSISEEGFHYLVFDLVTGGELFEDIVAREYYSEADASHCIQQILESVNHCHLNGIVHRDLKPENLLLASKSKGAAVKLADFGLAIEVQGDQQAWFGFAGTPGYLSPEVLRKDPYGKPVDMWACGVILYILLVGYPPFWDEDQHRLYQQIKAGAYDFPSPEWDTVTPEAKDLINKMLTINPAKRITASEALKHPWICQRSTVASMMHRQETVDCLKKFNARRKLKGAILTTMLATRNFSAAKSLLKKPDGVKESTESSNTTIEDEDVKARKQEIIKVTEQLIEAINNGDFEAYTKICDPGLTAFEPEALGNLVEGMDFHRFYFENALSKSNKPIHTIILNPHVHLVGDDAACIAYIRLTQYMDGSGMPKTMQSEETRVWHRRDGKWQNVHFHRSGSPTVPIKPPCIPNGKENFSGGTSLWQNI

ΔTm [°C] | Structure (SMILES)
-0.1 | CC(C)n1cnc2c(NCc3ccccc3O)nc(NCCCO)nc21
0.9 | O=C1Nc2ccc(I)cc2/C1=C\c1cc(Br)c(O)c(Br)c1
0 | O=C1Cc2c([nH]c3ccc([N+](=O)[O-])cc23)-c2ccccc2N1

molecular target: Calcium/calmodulin-dependent protein kinase type 1D (Homo sapiens) (UniProt Q8IU85)

ΔTm [°C] | Structure (SMILES)
0 | CC(C)n1cnc2c(NCc3ccccc3O)nc(NCCCO)nc21
-0.1 | O=C1Nc2ccc(I)cc2/C1=C\c1cc(Br)c(O)c(Br)c1
0.8 | O=C1Cc2c([nH]c3ccc([N+](=O)[O-])cc23)-c2ccccc2N1

molecular target: Death-associated protein kinase 3 (Homo sapiens) (UniProt O43293)
Sequence (O43293 whole entry, looked up): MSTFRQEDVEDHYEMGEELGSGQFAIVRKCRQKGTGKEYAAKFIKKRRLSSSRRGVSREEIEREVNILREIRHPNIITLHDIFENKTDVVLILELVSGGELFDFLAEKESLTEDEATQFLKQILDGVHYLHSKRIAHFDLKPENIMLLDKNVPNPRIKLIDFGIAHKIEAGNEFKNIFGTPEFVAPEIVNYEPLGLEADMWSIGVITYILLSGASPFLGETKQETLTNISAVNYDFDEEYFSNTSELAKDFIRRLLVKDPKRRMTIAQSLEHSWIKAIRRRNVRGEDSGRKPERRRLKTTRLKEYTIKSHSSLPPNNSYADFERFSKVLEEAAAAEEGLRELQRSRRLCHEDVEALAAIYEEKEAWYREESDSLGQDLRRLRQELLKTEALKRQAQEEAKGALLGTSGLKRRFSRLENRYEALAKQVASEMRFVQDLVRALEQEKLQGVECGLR

Structure (SMILES) | ΔTm [°C]
CC(C)n1cnc2c(NCc3ccccc3O)nc(NCCCO)nc21 | 0.2
O=C1Nc2ccc(I)cc2/C1=C\c1cc(Br)c(O)c(Br)c1 | 2.6
O=C1Cc2c([nH]c3ccc([N+](=O)[O-])cc23)-c2ccccc2N1 | 1.6

molecular target: Dual specificity mitogen-activated protein kinase kinase 2 (Homo sapiens, UniProt P36507)

ΔTm [°C] | Structure (SMILES)
-0.2 | CC(C)n1cnc2c(NCc3ccccc3O)nc(NCCCO)nc21
0.2 | O=C1Nc2ccc(I)cc2/C1=C\c1cc(Br)c(O)c(Br)c1
0.3 | O=C1Cc2c([nH]c3ccc([N+](=O)[O-])cc23)-c2ccccc2N1

molecular target: Cyclin-dependent kinase 2 (Homo sapiens, UniProt P24941)

ΔTm [°C] | Structure (SMILES)
1.2 | CC(C)n1cnc2c(NCc3ccccc3O)nc(NCCCO)nc21
1.2 | O=C1Nc2ccc(I)cc2/C1=C\c1cc(Br)c(O)c(Br)c1
4.4 | O=C1Cc2c([nH]c3ccc([N+](=O)[O-])cc23)-c2ccccc2N1

molecular target: T4, Lymphokine-activated killer T-cell-originated protein kinase (Homo sapiens) (UniProt Q96KB5)
T4 sequence (whole entry): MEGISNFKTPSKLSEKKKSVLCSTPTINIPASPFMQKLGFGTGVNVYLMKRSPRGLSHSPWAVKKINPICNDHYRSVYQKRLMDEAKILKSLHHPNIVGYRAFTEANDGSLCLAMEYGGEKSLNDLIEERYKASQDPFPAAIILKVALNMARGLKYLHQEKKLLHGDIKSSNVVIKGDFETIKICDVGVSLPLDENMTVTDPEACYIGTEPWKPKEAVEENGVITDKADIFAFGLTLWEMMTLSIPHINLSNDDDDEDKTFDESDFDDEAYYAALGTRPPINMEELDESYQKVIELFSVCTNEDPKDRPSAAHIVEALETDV

Structure (SMILES) | ΔTm [°C]
CC(C)n1cnc2c(NCc3ccccc3O)nc(NCCCO)nc21 | 0.7
O=C1Nc2ccc(I)cc2/C1=C\c1cc(Br)c(O)c(Br)c1 | 0.9
O=C1Cc2c([nH]c3ccc([N+](=O)[O-])cc23)-c2ccccc2N1 | 0.1
